Measurements as given in patent publication US4035507A, “Novel, transient pro-drug forms of L-DOPA to treat Parkinson's disease” (Interx Research Corporation, priority 1976, dated 1977).

Assays:
[1] = Coutinaho, Spiegel et al. (1971); Weiss and Rossi (1963); cited from earlier work
[2] = Blood concentration of L-DOPA following oral administration of L-DOPA or an L-DOPA derivative to Beagle dogs; conditions: three Beagle dogs; for L-DOPA at the peak / area under the curve / time for reaching the peak: L-DOPA in blood after oral administration; for [L-DOPA] (μg/ml) at time (hours) 0.5 / [L-DOPA] (μg/ml) at time (hours) 1.0 / [L-DOPA] (μg/ml) at time (hours) 2.0 / [L-DOPA] (μg/ml) at time (hours) 4.0 / [L-DOPA] (μg/ml) at time (hours) 6.0 / [L-DOPA] (μg/ml) at time (hours) 3.0 / [L-DOPA] (μg/ml) at time (hours) 1.5: blood; for [L-DOPA] (μg/ml) at time (hours) 0.5: 0.5 hours after oral administration of 0.1 of L-DOPA or equivalent amount of derivative; for [L-DOPA] (μg/ml) at time (hours) 1.0: 1.0 hours after oral administration of 0.1 of L-DOPA or equivalent amount of derivative; for [L-DOPA] (μg/ml) at time (hours) 2.0: 2.0 hours after oral administration of 0.1 of L-DOPA or equivalent amount of derivative; for [L-DOPA] (μg/ml) at time (hours) 4.0: 4.0 hours after oral administration of 0.1 of L-DOPA or equivalent amount of derivative; for [L-DOPA] (μg/ml) at time (hours) 6.0: 6.0 hours after oral administration of 0.1 of L-DOPA or equivalent amount of derivative; for [L-DOPA] (μg/ml) at time (hours) 3.0: 3.0 hours after oral administration of 0.1 of L-DOPA or equivalent amount of derivative; for [L-DOPA] (μg/ml) at time (hours) 1.5: 1.5 hours after oral administration of 0.1 of L-DOPA or equivalent amount of derivative;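 on all read-outs here: dogs of both sexes, 12 to 14 Kg body weight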
Excerpt: Reference to (a) refers to the values obtained from three Beagle dogs for each compound tested, the Beagle dogs being of both sexes and weighing from 12 to 14 Kg.
Reference to [L-DOPA] refers to the concentration of L-DOPA

N[C@@H](Cc1ccc(O)c(O)c1)C(=O)O [(0), 3,4-dihydroxy-L-phenylalanine, reference compound]
half-life of L-DOPA in the bloodstream [1]: approximately 45 minutes
L-DOPA at the peak [2]: 0.9 µg/mL
area under the curve [2]: 2.6 µg/h/mL
time for reaching the peak [2]: 1.8 h
[L-DOPA] (μg/ml) at time (hours) 0.5 [2]: 0.14 µg/mL
[L-DOPA] (μg/ml) at time (hours) 1.0 [2]: 0.64 µg/mL
[L-DOPA] (μg/ml) at time (hours) 2.0 [2]: 0.87 µg/mL
[L-DOPA] (μg/ml) at time (hours) 4.0 [2]: 0.22 µg/mL
[L-DOPA] (μg/ml) at time (hours) 6.0 [2]: 0.11 µg/mL

COC(=O)[C@@H](N)Cc1ccc(OC(C)=O)c(OC(C)=O)c1.Cl [Compound (I), 3,4-diacetyloxy-L-phenylalanine-methyl ester, HCl]
L-DOPA at the peak [2]: 1.6 µg/mL
[L-DOPA] (μg/ml) at time (hours) 2.0 [2]: 0.39 µg/mL
[L-DOPA] (μg/ml) at time (hours) 3.0 [2]: 0.12 µg/mL

CC(=O)Oc1ccc(C[C@H](N)C(=O)OCc2ccccc2)cc1OC(C)=O.Cl [Compound (II), 3,4-diacetyloxy-L-phenylalanine-benzyl ester hydrochloride]
L-DOPA at the peak [2]: 2.3 µg/mL
area under the curve [2]: 5.96 µg/h/mL
time for reaching the peak [2]: 0.5 h
[L-DOPA] (μg/ml) at time (hours) 0.5 [2]: 1.71 µg/mL
[L-DOPA] (μg/ml) at time (hours) 1.0 [2]: 1.30 µg/mL
[L-DOPA] (μg/ml) at time (hours) 1.5 [2]: 1.08 µg/mL
[L-DOPA] (μg/ml) at time (hours) 2.0 [2]: 0.55 µg/mL
[L-DOPA] (μg/ml) at time (hours) 3.0 [2]: 0.20 µg/mL
[L-DOPA] (μg/ml) at time (hours) 4.0 [2]: 0.14 µg/mL
[L-DOPA] (μg/ml) at time (hours) 6.0 [2]: 0.05 µg/mL

CC(=O)Oc1ccc(C[C@H](NC(=O)CN)C(=O)O)cc1OC(C)=O.Cl [Compound (III), glycyl-3,4-diacetyloxy-L-phenylalanine-hydrochloride]
L-DOPA at the peak [2]: 2.4 µg/mL
area under the curve [2]: 7.25 µg/h/mL
time for reaching the peak [2]: 0.75 h
[L-DOPA] (μg/ml) at time (hours) 0.5 [2]: 1.34 µg/mL
[L-DOPA] (μg/ml) at time (hours) 1.0 [2]: 1.95 µg/mL
[L-DOPA] (μg/ml) at time (hours) 1.5 [2]: 1.21 µg/mL
[L-DOPA] (μg/ml) at time (hours) 2.0 [2]: 0.43 µg/mL
[L-DOPA] (μg/ml) at time (hours) 3.0 [2]: 0.27 µg/mL
[L-DOPA] (μg/ml) at time (hours) 4.0 [2]: 0.13 µg/mL
[L-DOPA] (μg/ml) at time (hours) 6.0 [2]: 0.02 µg/mL

COC(=O)[C@H](Cc1ccc(OC(C)=O)c(OC(C)=O)c1)NC(=O)CN.Cl [Compound (IV), glycyl-3,4-diacetyloxy-L-phenylalanine-methyl ester hydrochloride]
L-DOPA at the peak [2]: 1.7 µg/mL
area under the curve [2]: 3.38 µg/h/mL
time for reaching the peak [2]: 0.80 h
[L-DOPA] (μg/ml) at time (hours) 0.5 [2]: 0.79 µg/mL
[L-DOPA] (μg/ml) at time (hours) 1.0 [2]: 1.17 µg/mL
[L-DOPA] (μg/ml) at time (hours) 1.5 [2]: 0.51 µg/mL
[L-DOPA] (μg/ml) at time (hours) 2.0 [2]: 0.33 µg/mL
[L-DOPA] (μg/ml) at time (hours) 3.0 [2]: 0.08 µg/mL
[L-DOPA] (μg/ml) at time (hours) 4.0 [2]: 0.02 µg/mL
[L-DOPA] (μg/ml) at time (hours) 6.0 [2]: 0 µg/mL

CC(=O)Oc1ccc(C[C@H](N)C(=O)NCC(=O)O)cc1OC(C)=O.Cl [Compound (V), 3,4-diacetyloxy-L-phenylalanyl-glycine hydrochloride]
L-DOPA at the peak [2]: 1.8 µg/mL
area under the curve [2]: 5.30 µg/h/mL
time for reaching the peak [2]: 1.2 h
[L-DOPA] (μg/ml) at time (hours) 0.5 [2]: 0.26 µg/mL
[L-DOPA] (μg/ml) at time (hours) 1.0 [2]: 1.30 µg/mL
[L-DOPA] (μg/ml) at time (hours) 1.5 [2]: 1.62 µg/mL
[L-DOPA] (μg/ml) at time (hours) 2.0 [2]: 0.80 µg/mL
[L-DOPA] (μg/ml) at time (hours) 3.0 [2]: 0.23 µg/mL
[L-DOPA] (μg/ml) at time (hours) 4.0 [2]: 0.03 µg/mL
[L-DOPA] (μg/ml) at time (hours) 6.0 [2]: 0 µg/mL
